# Results: ChEMBL document CHEMBL1131361, “Structure-activity relationships in 2-aminodiphenylsulfides against trypanothione reductase from Trypanosoma cruzi” (Bioorg Med Chem Lett, 1998)
# Tested on: not listed separately
# Experiment: (§1) Michaelis constant was determined.
# Type: ADME
row,Km,SMILES
1,160 µM,CN1CCN(CCC(=O)Nc2cc(Br)ccc2Sc2cccc(NC(=O)CCCCCC(=O)OCC3=C(Br)C(=O)c4ccccc4C3=O)c2)CC1

# Tested on: not listed separately
# Experiment: as §1
row,Km,SMILES
1,882 µM,CC1=CC(=O)c2ccccc2C1=O [MENADIONE]

# Tested on: not listed separately
# Experiment: Catalytic rate constant was determined
# Type: ADME
row,k cat/Km,SMILES
1,8400 M⁻¹ s⁻¹,CN1CCN(CCC(=O)Nc2cc(Br)ccc2Sc2cccc(NC(=O)CCCCCC(=O)OCC3=C(Br)C(=O)c4ccccc4C3=O)c2)CC1
2,50000 M⁻¹ s⁻¹,CC1=CC(=O)c2ccccc2C1=O [MENADIONE]

# Molecular target: Trypanothione reductase (Trypanosoma cruzi, UniProt P28593)
# Experiment: Inhibition of trypanothione reductase from Trypanosoma cruzi, in the presence 57 uM of trypanothione T(SH)2
# Sequence of Trypanothione reductase (P28593 whole entry): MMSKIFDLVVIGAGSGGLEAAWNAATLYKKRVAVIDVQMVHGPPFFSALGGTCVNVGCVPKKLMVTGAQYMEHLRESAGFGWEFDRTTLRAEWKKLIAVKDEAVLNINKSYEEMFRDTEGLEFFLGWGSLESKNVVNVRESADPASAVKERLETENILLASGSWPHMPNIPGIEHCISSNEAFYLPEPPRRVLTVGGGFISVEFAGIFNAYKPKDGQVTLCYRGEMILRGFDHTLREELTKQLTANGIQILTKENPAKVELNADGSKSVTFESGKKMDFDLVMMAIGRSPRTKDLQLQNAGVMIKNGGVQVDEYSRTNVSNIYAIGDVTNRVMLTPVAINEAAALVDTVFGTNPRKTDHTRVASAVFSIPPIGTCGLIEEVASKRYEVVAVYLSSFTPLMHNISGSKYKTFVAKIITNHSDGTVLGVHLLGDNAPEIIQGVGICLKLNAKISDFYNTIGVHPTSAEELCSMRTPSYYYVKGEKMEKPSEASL
row,SMILES,IC50
1,CCN(CC)C(=O)CCCC(=O)Nc1cccc(Sc2ccc(Br)cc2NC(=O)CCN2CCN(C)CC2)c1,> 60 µM
2,CN1CCN(CCC(=O)Nc2cc(Br)ccc2Sc2cccc(NC(=O)CCCC(=O)NCC34C[C@H]5C[C@@H](C3)C[C@@H](C4)C5)c2)CC1,> 60 µM
3,CN1CCN(CCC(=O)Nc2cc(Br)ccc2Sc2cccc(NC(=O)CCCC(=O)NCC3CCCO3)c2)CC1 (centres undefined),> 60 µM
4,CN1CCN(CCC(=O)Nc2cc(Br)ccc2Sc2cccc(NC(=O)CCCC(=O)NCc3ccccn3)c2)CC1,> 60 µM
5,CN1CCN(CCC(=O)Nc2cc(Br)ccc2Sc2cccc(NC(=O)CCCCCC(=O)Nc3cccc(Sc4ccccc4[N+](=O)[O-])c3)c2)CC1,> 60 µM
6,CN1CCN(CCC(=O)Nc2cc(Br)ccc2Sc2cccc(NC(=O)CCCCCC(=O)Nc3ccc(N)c4c3C(=O)c3ccccc3C4=O)c2)CC1,> 60 µM
7,CCCCCCCCCCCCCCCCNC(=O)CCCC(=O)Nc1cccc(Sc2ccc(Br)cc2NC(=O)CCN2CCN(C)CC2)c1,> 60 µM

# More lines, now with the values ahead:
row,IC50,SMILES
1,3.3 µM,CN(C)Cc1ccc(Nc2ccc(NC(=O)CCCCCC(=O)Nc3cccc(Sc4ccc(Br)cc4NC(=O)CCN4CCN(C)CC4)c3)c3c2C(=O)c2ccccc2C3=O)cc1
2,47 µM,CN1CCN(CCC(=O)Nc2cc(Br)ccc2Sc2cccc(NC(=O)CCCC(=O)NCC3CCCCC3)c2)CC1
3,35 µM,CN1CCN(CCC(=O)Nc2cc(Br)ccc2Sc2cccc(NC(=O)CCCC(=O)NCc3ccccc3)c2)CC1
4,25 µM,CN1CCN(CCC(=O)Nc2cc(Br)ccc2Sc2cccc(NC(=O)CCCC(=O)NCc3ccc4ccccc4c3)c2)CC1
5,41 µM,CN1CCN(CCC(=O)Nc2cc(Br)ccc2Sc2cccc(NC(=O)CCCCCC(=O)OCC3=C(Br)C(=O)c4ccccc4C3=O)c2)CC1
6,20 µM,CN1CCN(CCC(=O)Nc2cc(Br)ccc2Sc2cccc(NC(=O)CCCC(=O)NCCc3ccccc3)c2)CC1
7,23 µM,CCCCCCCNC(=O)CCCC(=O)Nc1cccc(Sc2ccc(Br)cc2NC(=O)CCN2CCN(C)CC2)c1
8,1.8 µM,CN1CCN(CCC(=O)Nc2ccccc2Sc2cccc(NC(=O)CCCCCC(=O)Nc3cccc(Sc4ccccc4N)c3)c2)CC1
9,16 µM,CN1CCN(CCC(=O)Nc2cc(Br)ccc2Sc2cccc(NC(=O)CCCCCC(=O)Nc3cccc(Sc4ccccc4N)c3)c2)CC1
10,0.55 µM,CN1CCN(CCC(=O)Nc2cc(Br)ccc2Sc2cccc(NC(=O)CCCC(=O)Nc3cccc(Sc4ccc(Br)cc4NC(=O)CCN4CCN(C)CC4)c3)c2)CC1
11,33 µM,CN1CCN(CCC(=O)Nc2cc(Br)ccc2Sc2cccc(NC(=O)CCCC(=O)NCc3ccc4c(c3)OCO4)c2)CC1
12,14 µM,CN1CCN(CCC(=O)Nc2cc(Br)ccc2Sc2cccc(NC(=O)CCCCCC(=O)Nc3ccccc3)c2)CC1
13,28 µM,CN1CCN(CCC(=O)Nc2cc(Br)ccc2Sc2cccc(NC(=O)CCCC(=O)NC(c3ccccc3)c3ccccc3)c2)CC1
